Where “and” joins values, the source holds several entries; their conditions need not be identical. Identical values can stand only once.
System: NOD mice with recent-onset diabetes
Assay: GLP-1 and gastrin therapy of recent-onset diabetes in NOD mice, fasting blood glucose
Type: in vivo, mouse
Conditions: NOD female mice, GLP-1 100 μg/kg/day, gastrin 3 μg/kg/day, i.p. twice a day
Excerpt: In this example, the effect of treatment by a combination of GLP-1 and gastrin was examined in NOD mice with recent onset diabetes, to determine whether administration of both GLP-1 and gastrin would prevent severe hyperglycemia, ketoacidosis and death as well as increase pancreatic insulin content in NOD mice with recent-onset diabetes. The I.N.T.™ composition used was gastrin as synthetic human gastrin I having 17 amino acid residues with a Leu residue at amino acid position 15. The GLP-1 used was GLP-1 which is the biologically active fragment of human/mouse GLP-1 (having residues at positions 7-36 compared to the precursor from which the fragment is processed; obtained from Bachem H6795).
Non-obese diabetic (NOD) female mice, ages 12-14 weeks, were monitored for development of onset of diabetes (fasting blood glucose >8.0 to 15 mmol/l), and within 48 hours after onset of symptoms, two groups of mice were each treated as follows: one group was treated with vehicle only; and the other group was administered 100 μg/kg/day of GLP-1, each treatment administered via the intraperitoneal route twice daily.
Therapy was administered for 14 days. Animals were monitored weekly for fasting blood glucose (FBG) levels. FBG levels were measured at about 12 hours after food had been withdrawn, and 24 hours after the last peptide or vehicle injection. Upon cessation of therapy, all mice were monitored for FBG levels for the next 4 weeks (weeks 2-6) so as to determine whether prevention of hyperglycemia persisted after termination of therapeutic treatment.
The protocol includes sampling of these mice for data again at 6 weeks, and blood collected for assay of FBG and plasma C-peptide, and the mice are sacrificed for pancreatic insulin determinations and scoring of islet inflammation (insulitis). From the outset of treatment, mice received neither insulin-replacement treatment nor immunosuppression. The following parameters are assessed: survival rates, pancreatic insulin levels, presence of islet inflammation and fasting blood glucose levels.

## GLP-1: biologically active fragment of human/mouse GLP-1 (having residues at positions 7-36); obtained from Bachem H6795
Day 0 (start of treatment)
  FBG (mM) at day: 0: 12.3 ± 0.9 mM
Day 7 of treatment
  FBG (mM) at day: 7: 14.1 ± 1.8 mM
Day 14 (end of treatment)
  FBG (mM) at day: 14: 15.3 ± 2.6 mM
Day 18 (treatment stopped at 14 days)
  FBG (mM) at day: 18: 15.8 mM and 15.8 ± 4.2 mM

— US20060189520A1, “Treatment of diabetes” (priority 2002, published 2006)
